Results taken from ChEMBL document CHEMBL1201862, “PubChem BioAssay data set” (2004).
Active and inactive are the calls of the source.

How the values were obtained:
Streptokinase A = target: T1, Streptokinase A (Streptococcus pyogenes serotype M1, UniProt P10520); assay: viability-normalized secreted streptokinase activity reduction – plasminogen activation absorbance, OD405, dose response (AID 1914); assay type: functional, Streptococcus pyogenes M1 GAS;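 also: secreted streptokinase activity via plasminogen activation per viability signal from cell pellet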
T1 sequence (P10520 whole entry): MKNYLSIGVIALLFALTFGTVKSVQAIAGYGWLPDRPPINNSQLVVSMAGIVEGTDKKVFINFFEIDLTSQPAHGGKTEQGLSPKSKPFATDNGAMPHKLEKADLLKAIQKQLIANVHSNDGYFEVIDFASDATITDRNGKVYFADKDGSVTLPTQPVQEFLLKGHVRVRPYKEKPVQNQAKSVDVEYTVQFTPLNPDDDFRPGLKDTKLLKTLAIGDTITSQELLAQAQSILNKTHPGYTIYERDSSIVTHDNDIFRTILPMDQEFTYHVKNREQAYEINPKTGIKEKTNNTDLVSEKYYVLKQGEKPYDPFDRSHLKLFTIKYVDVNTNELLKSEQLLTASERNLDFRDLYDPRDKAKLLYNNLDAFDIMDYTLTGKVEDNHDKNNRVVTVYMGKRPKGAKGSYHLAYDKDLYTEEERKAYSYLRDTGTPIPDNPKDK

[1] = target: G-protein coupled receptor 35 (Homo sapiens, UniProt Q9HC97); assay: inhibition of zaprinast-stimulated GPR35 beta-arrestin translocation – imaging, U2OS, beta-arrestin-GFP, zaprinast agonist, primary screen (AID 2058); assay type: functional;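 also: antagonist potency meaning inhibition of agonist-induced arrestin redistribution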
[2] = target: Sphingosine 1-phosphate receptor 4 (Homo sapiens, UniProt O95977); assay: Fluorescence dose response cell-based high throughput screening assay for antagonists of the Sphingosine 1-Phosphate Receptor 4 (S1P4). [Related pubchem assays: 1524 (Confirmation in triplicates.), 1510 (Primary screen.)]; assay type: functional
[3] = target: Intestinal-type alkaline phosphatase (Mus musculus, UniProt P24822); assay: mouse intestinal alkaline phosphatase activators, dose response, biochemical, luminescence, uHTS hits (AID 488783); assay type: functional
Ephrin type-A receptor 4 = Ephrin type-A receptor 4 (Mus musculus, UniProt Q03137); assay: EphA4 ligand-binding antagonists – biochemical, colorimetric, mouse EphA4, primary screen (AID 689); assay type: functional
Albumin = Albumin (Bos taurus, UniProt P02769); assay: Counterscreen for inhibitors of T-cell receptor (TCR)-CD3 interaction: Fluorescence-based biochemical high throughput dose response assay to identify inhibitors of T-cell receptor (TCR)-CD3 interaction using a TAMRA-labeled BSA probe.; assay type: functional
Estrogen receptor beta = Estrogen receptor beta (Homo sapiens, UniProt Q92731); assay: blockers of SRC-3 recruitment to ERβ – biochemical, ELISA, streptavidin-HRP readout, orthogonal assay, confirmation (AID 1060)
[4] = target: Glucose-6-phosphate 1-dehydrogenase (Homo sapiens, UniProt P11413); assay: inhibition of Homo sapiens G6PD, dose series – biochemical, fluorescence, selectivity assay for P. falciparum G6PD inhibitor project, dose response (AID 504792); assay type: functional
[5] = target: Tyrosine-protein kinase receptor UFO (Homo sapiens, UniProt P30530); assay type: functional
[6] = target: cGMP-dependent protein kinase 1 (Homo sapiens, UniProt Q13976); assay type: functional;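 also: value from a kinome panel screen with PRKG1 as the panel member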
[7] = target: Dual specificity tyrosine-phosphorylation-regulated kinase 4 (Homo sapiens, UniProt Q9NR20); assay type: functional
[8] = target: Glycogen synthase kinase-3 alpha (Homo sapiens, UniProt P49840); assay type: functional;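 also: GSK3A result taken from a broad kinome-wide kinase panel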
[9] = target: Interleukin-1 receptor-associated kinase 4 (Homo sapiens, UniProt Q9NWZ3); assay type: functional
[10] = target: cAMP-dependent protein kinase catalytic subunit alpha (Homo sapiens, UniProt P17612); assay type: functional
[11] = target: Tyrosine-protein kinase Lyn (Homo sapiens, UniProt P07948); assay type: functional;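 also: lyn as one member of a kinase panel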
[12] = target: Phosphorylase b kinase gamma catalytic chain, liver/testis isoform (Homo sapiens, UniProt P15735); assay type: functional;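 also: PHKG2 measured as one member of a kinome-wide kinase panel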
[13] = target: Serine/threonine-protein kinase Chk2 (Homo sapiens, UniProt O96017); assay type: functional;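 also: CHEK2 entry within a kinome-wide screening panel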
[14] = target: Vascular endothelial growth factor receptor 1 (Homo sapiens, UniProt P17948); assay type: functional;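 also: measured within a kinome-wide profiling panel, FLT1 as the panel member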
[15] = target: Serine/threonine-protein kinase pim-3 (Homo sapiens, UniProt Q86V86); assay type: functional;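 also: value obtained as one member of a broad kinase panel profiling effort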
[16] = target: Proto-oncogene tyrosine-protein kinase Src (Homo sapiens, UniProt P12931); assay type: functional;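 also: SRC entry within a kinome-wide kinase profiling panel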
[17] = target: Serine/threonine-protein kinase pim-1 (Homo sapiens, UniProt P11309); assay type: functional
[18] = target: Calcium/calmodulin-dependent protein kinase type 1 (Homo sapiens, UniProt Q14012); assay type: functional
Focal adhesion kinase 1 = Focal adhesion kinase 1 (Homo sapiens, UniProt Q05397); assay type: functional;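 also: measured as one member of a kinome panel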
[19] = target: RAC-alpha serine/threonine-protein kinase (Homo sapiens, UniProt P31749); assay type: functional;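 also: AKT1 affinity measured as one member of a kinome-wide kinase profiling panel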
[20] = target: Mitogen-activated protein kinase kinase kinase 20 (Homo sapiens, UniProt Q9NYL2); assay type: functional
[21] = DRD fibroblast viability loss – cell-based, non-viral oncogenic, luminescence, dose response (AID 1934); assay type: functional; settings: Homo sapiens
[22] = viability of HCT116 lacking mutant beta-catenin – cell-based, human colon tumor, dose response (AID 1045); assay type: functional;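 also: HCT116 colon tumor cells with beta catenin knocked out; cells exposed to compound for 60 hours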
BJ = assay: cells; assay type: functional, cell-based; settings: Homo sapiens
Caspase-3 = target: T2, Caspase-3 (Homo sapiens, UniProt P42574); assay: Dose-response confirmation of uHTS inhibitor hits of Sentrin-Specific Protease 8 in a Caspase-3 Fluorescence assay.; assay type: functional
T2 sequence (P42574 whole entry): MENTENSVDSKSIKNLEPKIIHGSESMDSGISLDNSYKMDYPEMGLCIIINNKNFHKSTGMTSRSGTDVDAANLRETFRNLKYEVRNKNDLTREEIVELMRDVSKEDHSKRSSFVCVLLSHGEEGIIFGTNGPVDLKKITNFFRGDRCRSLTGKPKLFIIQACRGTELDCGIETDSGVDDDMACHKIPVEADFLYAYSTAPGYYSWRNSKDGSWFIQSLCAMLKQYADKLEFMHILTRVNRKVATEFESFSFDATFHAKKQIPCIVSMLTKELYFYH

Sequence of Tyrosine-protein kinase Lyn (P07948 whole entry, canonical isoform): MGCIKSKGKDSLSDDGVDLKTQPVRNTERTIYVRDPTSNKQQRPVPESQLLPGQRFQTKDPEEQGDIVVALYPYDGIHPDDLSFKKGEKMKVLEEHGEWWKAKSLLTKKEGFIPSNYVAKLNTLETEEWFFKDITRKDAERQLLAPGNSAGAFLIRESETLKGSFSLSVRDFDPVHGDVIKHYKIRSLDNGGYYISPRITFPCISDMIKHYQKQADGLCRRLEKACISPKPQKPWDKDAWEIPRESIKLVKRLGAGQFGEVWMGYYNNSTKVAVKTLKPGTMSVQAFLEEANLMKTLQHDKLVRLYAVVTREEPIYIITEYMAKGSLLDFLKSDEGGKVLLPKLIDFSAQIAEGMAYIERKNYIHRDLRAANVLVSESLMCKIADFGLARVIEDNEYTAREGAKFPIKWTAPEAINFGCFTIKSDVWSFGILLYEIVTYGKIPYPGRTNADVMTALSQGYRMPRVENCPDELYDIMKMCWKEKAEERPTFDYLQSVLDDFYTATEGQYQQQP
Sequence of Albumin (P02769 whole entry): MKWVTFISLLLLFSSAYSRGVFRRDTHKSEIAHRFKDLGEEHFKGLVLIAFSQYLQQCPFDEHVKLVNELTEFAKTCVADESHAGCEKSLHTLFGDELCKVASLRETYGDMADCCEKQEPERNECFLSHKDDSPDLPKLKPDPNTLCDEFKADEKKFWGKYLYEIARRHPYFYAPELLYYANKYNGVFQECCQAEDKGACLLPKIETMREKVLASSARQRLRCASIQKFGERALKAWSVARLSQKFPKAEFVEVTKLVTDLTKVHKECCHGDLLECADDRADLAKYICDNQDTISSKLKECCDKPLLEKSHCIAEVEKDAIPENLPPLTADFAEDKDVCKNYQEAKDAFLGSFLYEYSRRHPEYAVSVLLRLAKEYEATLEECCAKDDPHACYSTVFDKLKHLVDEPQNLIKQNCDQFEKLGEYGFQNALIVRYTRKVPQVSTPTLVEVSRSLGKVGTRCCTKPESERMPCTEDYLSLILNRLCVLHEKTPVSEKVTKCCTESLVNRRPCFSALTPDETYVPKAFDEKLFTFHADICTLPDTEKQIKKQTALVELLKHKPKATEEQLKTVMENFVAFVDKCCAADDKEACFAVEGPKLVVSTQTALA
Sequence of Calcium/calmodulin-dependent protein kinase type 1 (Q14012 whole entry): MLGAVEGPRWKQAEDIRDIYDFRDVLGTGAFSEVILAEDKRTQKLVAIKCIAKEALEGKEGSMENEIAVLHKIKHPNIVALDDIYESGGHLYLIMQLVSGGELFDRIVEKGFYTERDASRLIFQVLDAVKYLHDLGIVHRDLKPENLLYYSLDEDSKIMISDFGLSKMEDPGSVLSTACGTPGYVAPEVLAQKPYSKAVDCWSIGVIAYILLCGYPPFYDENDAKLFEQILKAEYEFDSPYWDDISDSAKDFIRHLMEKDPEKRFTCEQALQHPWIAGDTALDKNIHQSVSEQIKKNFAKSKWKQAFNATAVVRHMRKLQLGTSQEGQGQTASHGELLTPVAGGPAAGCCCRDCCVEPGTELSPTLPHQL
Sequence of Estrogen receptor beta (Q92731 whole entry): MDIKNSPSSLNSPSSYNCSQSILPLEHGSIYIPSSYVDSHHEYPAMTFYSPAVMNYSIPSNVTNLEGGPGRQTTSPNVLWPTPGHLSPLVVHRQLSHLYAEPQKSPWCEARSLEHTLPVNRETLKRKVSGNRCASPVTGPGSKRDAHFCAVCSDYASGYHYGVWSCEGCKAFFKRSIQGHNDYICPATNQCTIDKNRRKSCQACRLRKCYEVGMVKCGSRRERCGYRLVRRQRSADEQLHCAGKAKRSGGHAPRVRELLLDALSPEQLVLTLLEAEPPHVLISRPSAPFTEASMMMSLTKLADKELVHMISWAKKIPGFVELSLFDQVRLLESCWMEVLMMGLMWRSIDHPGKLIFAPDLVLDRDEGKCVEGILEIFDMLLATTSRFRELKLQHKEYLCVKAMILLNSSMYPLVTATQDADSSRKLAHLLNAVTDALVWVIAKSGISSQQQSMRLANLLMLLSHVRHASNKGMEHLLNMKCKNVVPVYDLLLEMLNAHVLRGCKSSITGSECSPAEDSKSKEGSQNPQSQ
Sequence of Dual specificity tyrosine-phosphorylation-regulated kinase 4 (Q9NR20 whole entry): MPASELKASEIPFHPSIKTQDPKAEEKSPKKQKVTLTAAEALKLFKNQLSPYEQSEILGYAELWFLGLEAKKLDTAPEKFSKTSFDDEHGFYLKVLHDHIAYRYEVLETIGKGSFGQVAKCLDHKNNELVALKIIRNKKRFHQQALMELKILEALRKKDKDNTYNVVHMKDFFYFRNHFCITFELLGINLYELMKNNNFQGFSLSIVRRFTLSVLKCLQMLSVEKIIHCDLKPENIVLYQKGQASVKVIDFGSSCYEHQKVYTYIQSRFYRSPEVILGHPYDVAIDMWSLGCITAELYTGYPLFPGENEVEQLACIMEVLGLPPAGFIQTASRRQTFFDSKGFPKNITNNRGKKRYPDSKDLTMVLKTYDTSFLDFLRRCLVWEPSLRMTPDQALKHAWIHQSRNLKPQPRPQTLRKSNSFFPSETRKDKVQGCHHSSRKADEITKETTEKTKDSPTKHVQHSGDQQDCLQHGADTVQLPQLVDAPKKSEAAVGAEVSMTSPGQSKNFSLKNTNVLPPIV
Sequence of Serine/threonine-protein kinase Chk2 (O96017 whole entry): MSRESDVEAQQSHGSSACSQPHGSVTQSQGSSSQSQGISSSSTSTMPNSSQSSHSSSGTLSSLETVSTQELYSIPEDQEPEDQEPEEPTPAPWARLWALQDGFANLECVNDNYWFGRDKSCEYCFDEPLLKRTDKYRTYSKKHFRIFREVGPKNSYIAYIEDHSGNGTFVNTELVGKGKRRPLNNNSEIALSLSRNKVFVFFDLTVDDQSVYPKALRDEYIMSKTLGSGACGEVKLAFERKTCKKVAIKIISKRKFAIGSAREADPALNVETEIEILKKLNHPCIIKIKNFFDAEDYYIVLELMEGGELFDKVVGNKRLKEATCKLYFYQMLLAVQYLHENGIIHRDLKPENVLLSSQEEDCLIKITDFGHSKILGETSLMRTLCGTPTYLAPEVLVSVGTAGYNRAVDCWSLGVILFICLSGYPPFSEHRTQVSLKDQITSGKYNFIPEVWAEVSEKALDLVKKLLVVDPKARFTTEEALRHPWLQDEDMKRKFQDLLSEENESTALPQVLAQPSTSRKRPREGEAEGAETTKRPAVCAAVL
Sequence of Glucose-6-phosphate 1-dehydrogenase (P11413 whole entry): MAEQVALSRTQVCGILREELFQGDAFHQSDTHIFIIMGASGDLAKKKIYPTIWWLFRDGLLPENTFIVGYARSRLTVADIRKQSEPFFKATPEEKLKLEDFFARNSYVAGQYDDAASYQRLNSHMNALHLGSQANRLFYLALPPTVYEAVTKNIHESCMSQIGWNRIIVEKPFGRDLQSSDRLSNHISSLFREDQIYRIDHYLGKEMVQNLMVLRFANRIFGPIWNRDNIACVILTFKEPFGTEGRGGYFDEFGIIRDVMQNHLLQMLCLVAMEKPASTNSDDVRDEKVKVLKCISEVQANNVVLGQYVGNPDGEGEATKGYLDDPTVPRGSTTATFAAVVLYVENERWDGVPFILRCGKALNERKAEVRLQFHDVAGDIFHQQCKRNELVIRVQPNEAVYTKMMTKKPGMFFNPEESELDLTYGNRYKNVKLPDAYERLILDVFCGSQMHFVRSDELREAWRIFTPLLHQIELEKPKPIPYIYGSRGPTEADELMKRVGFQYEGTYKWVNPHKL
Sequence of Serine/threonine-protein kinase pim-1 (P11309 whole entry): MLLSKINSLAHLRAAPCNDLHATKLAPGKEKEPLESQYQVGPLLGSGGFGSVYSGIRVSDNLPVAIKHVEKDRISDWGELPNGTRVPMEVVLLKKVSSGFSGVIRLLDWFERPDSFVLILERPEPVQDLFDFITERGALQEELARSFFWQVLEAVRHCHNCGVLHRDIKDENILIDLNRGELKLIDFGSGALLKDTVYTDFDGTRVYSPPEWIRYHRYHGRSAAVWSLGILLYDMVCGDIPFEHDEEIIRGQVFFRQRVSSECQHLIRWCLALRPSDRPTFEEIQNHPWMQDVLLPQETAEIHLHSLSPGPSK
Sequence of cGMP-dependent protein kinase 1 (Q13976 whole entry): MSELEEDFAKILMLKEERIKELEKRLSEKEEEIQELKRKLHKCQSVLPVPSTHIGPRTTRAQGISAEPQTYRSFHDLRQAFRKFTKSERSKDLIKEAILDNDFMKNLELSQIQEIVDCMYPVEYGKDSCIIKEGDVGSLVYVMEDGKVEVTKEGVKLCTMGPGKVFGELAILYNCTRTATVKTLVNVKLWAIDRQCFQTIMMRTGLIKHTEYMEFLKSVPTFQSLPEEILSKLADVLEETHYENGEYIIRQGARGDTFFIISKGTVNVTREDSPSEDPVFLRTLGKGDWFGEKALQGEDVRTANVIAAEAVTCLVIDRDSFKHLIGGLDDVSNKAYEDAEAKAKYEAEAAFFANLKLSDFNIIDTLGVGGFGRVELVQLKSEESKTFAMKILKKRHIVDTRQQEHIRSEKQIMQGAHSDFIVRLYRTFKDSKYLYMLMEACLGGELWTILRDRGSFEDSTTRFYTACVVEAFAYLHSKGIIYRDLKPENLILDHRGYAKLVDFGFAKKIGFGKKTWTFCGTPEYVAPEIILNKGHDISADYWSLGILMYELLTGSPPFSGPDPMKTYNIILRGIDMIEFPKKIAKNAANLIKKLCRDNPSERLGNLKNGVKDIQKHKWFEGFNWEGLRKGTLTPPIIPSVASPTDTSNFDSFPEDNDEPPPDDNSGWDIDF

In the case of `CC(=O)N(C1=C(Cl)C(=O)c2ccccc2C1=O)C1CCCCC1`, the EC50 (Streptokinase A) is reported as > 150 µM (not active), the IC50 [1] is reported as 5.55 µM (active) and the IC50 [2] is reported as 2.03 µM (active).
For `Oc1ccc(-c2cn3c(n2)SCC3)cc1O`, the EC50 [3] was 21 µM (active), the IC50 (Ephrin type-A receptor 4) was 42.3 µM (active) and the IC50 (Albumin) was > 94.1 µM (inactive). The IC50 (Estrogen receptor beta) was 10.7 µM (not active) and the IC50 [4] was 41 µM (inactive).
With `O=C1Nc2ccc3ncsc3c2C1=CNc1ccc(S(=O)(=O)Nc2ccccn2)cc1` the Ki [5] was 0.02 µM (active), the Ki [6] was 0.126 µM (active) and the Ki [7] was 3.16 µM (active). The Ki [8] was 0.00398 µM (active), the Ki [9] was 1.58 µM (active) and the Ki [10] was 3.98 µM (active). The Ki [11] was 0.398 µM (active), the Ki [12] was 0.158 µM (active) and the Ki [13] was 0.158 µM (active). For the same compound, the Ki [14] was 0.01 µM (active), the Ki [15] was 1.26 µM (active) and the Ki [16] was 0.158 µM (active). The Ki [17] was 1.58 µM (active), the Ki [18] was > 1.26 µM (inactive) and the Ki (Focal adhesion kinase 1) was > 1.58 µM (inactive). The Ki [19] was > 7.94 µM (inactive) and the Ki [20] was 0.2 µM (active).
With `Cc1ccc(NC2=C/C(=N\S(=O)(=O)c3cccs3)c3ccccc3C2=O)c(C)c1` the EC50 [21] was 5.14 µM (active), the EC50 [22] was 1.08 µM (active) and the EC50 (BJ) was 4.15 µM (active).
In the case of `COc1ccc(/C=N/NC(=O)c2nn(-c3ccccc3)c(=O)c3c(N)scc23)cc1`, the IC50 (Caspase-3) is reported as 2.15 µM (active).
